Values of other authors in patent publication US20190320896A1, “STROKE, CONCUSSION, AND COGNITIVE DYSFUNCTION DIAGNOSTIC METHOD AND DEVICE” (priority 2018, published 2019).

Assays:
[1] = human, in vivo
[2] = upon entering the circulation after bolus injection into a peripheral vein
[3] = after administration; metabolized by the kidneys

Structure (SMILES)	GLOS also affecting the aqueous chamber, cases [1]	GLOS in both chambers, patients [1]	GLOS in the aqueous chamber alone, patients [1]	GLOS in the vitreous chamber alone, patients [1]	GLOS present, always involving the vitreous chamber, patients [1] [% patients]	dye molecules bound to plasma proteins [2]	time to elimination through the urine [3] [h]
O=C([O-])CN(CCN(CC(=O)[O-])CC(=O)[O-])CCN(CC(=O)[O-])CC(=O)[O-].[Gd+3] [gadolinium, Gadolinium-DTPA]	6 % of cases	27 % of patients	67 % of patients	6 % of patients	75		
O=C1OC2(c3ccc(O)cc3Oc3cc(O)ccc32)c2ccccc21 [sodium fluorescein]						approximately 80%	24 to 36
